Test system: E. coli O157:H7 strain VS94
Format: cell-based, Escherichia coli O157:H7

CC(C)NCC(O)COc1cccc2ccccc12 (stereo not drawn) [β-blocker, propanolol]
% Adherence: 22%

Source: patent US10687543B2, “Probiotic bacterial molecules and their use in methods to treat/prevent infection by harmful bacteria and to provide nutritional health” (priority 2008, dated 2020)
